SMILES strings stand for the structures. pIC50: −log10 of the molar value.

Chain of P2X7 receptor (Q99572 whole entry): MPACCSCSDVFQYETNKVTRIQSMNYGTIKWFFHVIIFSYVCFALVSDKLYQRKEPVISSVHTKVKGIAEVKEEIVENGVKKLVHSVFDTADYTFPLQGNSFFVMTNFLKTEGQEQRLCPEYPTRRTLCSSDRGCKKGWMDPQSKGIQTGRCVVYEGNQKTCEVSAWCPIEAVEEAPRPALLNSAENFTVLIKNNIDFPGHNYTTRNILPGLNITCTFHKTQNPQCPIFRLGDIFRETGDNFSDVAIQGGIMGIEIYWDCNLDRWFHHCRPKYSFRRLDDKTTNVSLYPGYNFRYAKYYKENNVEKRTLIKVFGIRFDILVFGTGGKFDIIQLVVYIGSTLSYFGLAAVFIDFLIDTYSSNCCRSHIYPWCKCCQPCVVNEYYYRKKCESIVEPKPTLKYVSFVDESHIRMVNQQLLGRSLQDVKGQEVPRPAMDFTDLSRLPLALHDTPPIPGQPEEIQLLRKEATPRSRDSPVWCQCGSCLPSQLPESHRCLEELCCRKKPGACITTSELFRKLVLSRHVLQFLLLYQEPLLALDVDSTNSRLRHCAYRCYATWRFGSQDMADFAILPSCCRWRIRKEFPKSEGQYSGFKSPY

This assay concerns the target P2X7 receptor (Homo sapiens (Human), UniProt Q99572). The experiment in a line: P2X7 FLIPR assay: antagonism of BzATP response in 293 HEK cells stably expressing P2X7 receptor. The class given is cell-based. The following applies: FLIPR fluorescence (Fluo-4), agonist BzATP, 293 HEK cells stably transfected with P2X7 receptor. On the procedure: Cells were plated to cell density of approximately 15,000 cells/well in 384-well assay plates (50 μl/well) with 1.5% low serum media (DMEM, 1.5% BCS, 1% L-glut (2 mM), 1% P/S).
Cells were plated to cell density of approximately 15,000 cells/well in 384-well assay plates (50 μl/well) with 1.5% low serum media (DMEM, 1.5% FBS, 1% L-glut (2 mM), 10 mM HEPES, 1% P/S). Cells were plated 24 hours prior to assay. Cells expressing human, rat or mouse P2X7 receptor were assayed in the following manner.
Fluo-4 NW dye mix (Molecular Probes, Inc., Eugene, Oreg., USA) was prepared in buffer (see manufacturer's instructions). Cell plates were removed from the 37° C. incubator, the media discarded and then 30 μL of dye was added to each well. Plates were placed in the 37° C., non-CO2 incubator for 30 minutes and then room temperature for 30 minutes.
Compound mixtures (A) were added to assay plates containing cells and placed at room temperature for 30 minutes, then BzATP (B) was added. Fluorescence was read using the Tetra FLIPR® (Molecular Devices, Inc., Sunnyvale, Calif., USA) and IC50 values were calculated by standard methods to determine antagonist activity.
Regarding `COc1ccc(C(=O)NCC(c2cnc(C(F)(F)F)nc2)N2CCC(F)(F)CC2)c(Cl)c1OC` (single isomer, unassigned; (+)) [(+)2-chloro-N-[2-(4,4-difluoro-1-piperidyl)-2-[2-(trifluorom] [(+)2-chloro-3,4-dimethoxy-N-(2-(4,4-difluoropiperidin-1-yl)-2-(2-(trifluoromethyl)pyrimidin-5-yl)ethyl)benzamide], the pIC50 was 7.85. The result for `O=C(NCC(c1cnc(C(F)(F)F)nc1)N1CCC(F)CC1)c1c(Cl)cccc1Cl` (single isomer, unassigned; (+)) [(+)2,6-dichloro-N-[2-(4-fluoro-1-piperidyl)-2-[2-(trifluorom] [(+)2,6-dichloro-N-(2-(4-fluoropiperidin-1-yl)-2-(2-(trifluoromethyl)pyrimidin-5-yl)ethyl)benzamide] reads 8.21; that for `O=C(NCC(c1ccc(Cl)cc1)N1CCC(F)(F)CC1)c1cccc(Cl)c1Cl` (centres unmarked) [N-[2-(4-Chloro-phenyl)-2-(4,4-difluoro-piperidin-1-yl)-ethyl]-2,3-dichloro-benzamide], 7.34. The result for `O=C(NCC(c1ccc(C(F)(F)F)nc1)N1CCOCC1)c1c(F)cccc1F` (single isomer, unassigned; (+)) [(+)2,6-difluoro-N-[2-morpholino-2-[6-(trifluoromethyl)-3-pyr] [(+)2,6-Difluoro-N-[2-morpholino-2-[6-(trifluoromethyl)-3-pyridyl]ethyl]benzamide] reads 7.54; that for `COc1ccc(C(CNC(=O)c2cccc(Cl)c2Cl)N2CCOCC2)cc1` (centres unmarked) [2,3-Dichloro-N-[2-(4-methoxy-phenyl)-2-morpholin-4-yl-ethyl]-benzamide], 7.89; that for `CCc1ncc(C(CNC(=O)c2c(Cl)cccc2Cl)N2CCC(F)(F)CC2)cn1` (single isomer, unassigned; (-)) [(−)2,6-dichloro-N-[2-(4,4-difluoro-1-piperidyl)-2-(2-ethylpy] [(−)2,6-dichloro-N-(2-(4,4-difluoropiperidin-1-yl)-2-(2-ethylpyrimidin-5-yl)ethyl)benzamide], 7.57. Compound `COc1cccc(C(=O)NCC(c2cnc(C(F)(F)F)nc2)N2CCC(F)(F)CC2)c1Cl` (single isomer, unassigned; (+)) [(+)2-chloro-N-[2-(4,4-difluoro-1-piperidyl)-2-[2-(trifluorom] [(+)2-chloro-N-(2-(4,4-difluoropiperidin-1-yl)-2-(2-(trifluoromethyl)pyrimidin-5-yl)ethyl)-3-methoxybenzamide] showed a pIC50 of 8.44. This pIC50 is 0.87 log units higher than that of the compound before. Compound `Cc1ccc(C(CNC(=O)c2cc(C)ccc2Cl)N2CCOCC2)cc1` (centres unmarked) [2-Chloro-5-methyl-N-(2-morpholin-4-yl-2-p-tolyl-ethyl)-benzamide] had a pIC50 of 7.42.

`COc1ccc(C(=O)NCC(c2cnc(C(F)(F)F)nc2)N2CCC(F)(F)CC2)c(Cl)c1OC` (single isomer, unassigned; (-)) [(−)2-chloro-N-[2-(4,4-difluoro-1-piperidyl)-2-[2-(trifluorom] [(−)2-chloro-3,4-dimethoxy-N-(2-(4,4-difluoropiperidin-1-yl)-2-(2-(trifluoromethyl)pyrimidin-5-yl)ethyl)benzamide] gave a pIC50 of 8.11. On to `O=C(NCC(c1ccc(Cl)cc1)N1CCCOCC1)c1cccc(Cl)c1Cl` (centres unmarked) [2,3-dichloro-N-(2-(4-chlorophenyl)-2-(1,4-oxazepan-4-yl)ethyl)benzamide], for which the pIC50 was 7.77. As for `O=C(NCC(c1ccc(C(F)F)nc1)N1CCC(F)(F)CC1)c1ccccc1Cl` (single isomer, unassigned; (-)) [(−)2-chloro-N-[2-[6-(difluoromethyl)-3-pyridyl]-2-(4,4-diflu] [(−)2-chloro-N-(2-(2-(difluoromethyl)pyridin-5-yl)-2-(4,4-difluoropiperidin-1-yl)ethyl)benzamide], the pIC50 was 7.92. `O=C(NCC(c1cnc(C(F)(F)F)nc1)N1CCOCC1)c1cccc(C(F)(F)F)c1Cl` (single isomer, unassigned; (+)) [(+)2-chloro-N-[2-morpholino-2-[2-(trifluoromethyl)pyrimidin-] [(+)2-Chloro-N-[2-morpholino-2-[2-(trifluoromethyl)pyrimidin-5-yl]ethyl]-3-(trifluoromethyl)benzamide] showed a pIC50 of 7.77.

`N#Cc1ccc(Cl)c(C(=O)NCC(c2ccc(Cl)cc2)N2CCOCC2)c1` (single isomer, unassigned; (+)) [(+)2-chloro-N-[2-(4-chlorophenyl)-2-morpholino-ethyl]-5-cyan] [(+)2-chloro-N-(2-(4-chlorophenyl)-2-morpholinoethyl)-5-cyanobenzamide] showed a pIC50 of 7.64. The compound `Cc1ncc(C(CNC(=O)c2ccccc2Cl)N2CCOCC2)cn1` (single isomer, unassigned; (-)) [(−)2-chloro-N-[2-(2-methylpyrimidin-5-yl)-2-morpholino-ethyl] [(−)2-chloro-N-(2-(2-methylpyrimidin-5-yl)-2-morpholinoethyl)benzamide] showed a pIC50 of 6.96.

Take `COc1cccc(C(=O)NCC(c2ccc(Cl)cc2)N2CCOCC2)c1Cl` (single isomer, unassigned; (+)) [(+)2-chloro-N-[2-(4-chlorophenyl)-2-morpholino-ethyl]-3-meth] [(+)2-chloro-N-(2-(4-chlorophenyl)-2-morpholinoethyl)-3-methoxybenzamide]: the negative-log IC50 (pIC50) is 8.38. As for `O=C(NCC(c1cncnc1)N1CCOCC1)c1cccc(Cl)c1Cl` (centres unmarked) [2,3-Dichloro-N-(2-morpholino-2-pyrimidin-5-yl-ethyl)benzamide], the negative-log IC50 (pIC50) was 7.55. `Cc1ncc(C(CNC(=O)c2c(Cl)cccc2Cl)N2CCC(F)CC2)cn1` (single isomer, unassigned; (+)) [(+)2,6-dichloro-N-[2-(4-fluoro-1-piperidyl)-2-(2-methylpyrim] [(+)2,6-dichloro-N-(2-(4-fluoropiperidin-1-yl)-2-(2-methylpyrimidin-5-yl)ethyl)benzamide] gave a pIC50 of 8.02. With `O=C(NCC(c1cnc(C(F)(F)F)nc1)N1CCC(F)(F)CC1)c1cc(F)cc(Cl)c1Cl` (single isomer, unassigned; (+)) [(+)2,3-dichloro-N-[2-(4,4-difluoro-1-piperidyl)-2-[2-(triflu] [(+)2,3-dichloro-5-fluoro-N-(2-(4,4-difluoropiperidin-1-yl)-2-(2-(trifluoromethyl)pyrimidin-5-yl)ethyl)benzamide], the pIC50 is 8.31. In turn, `Cc1ncc(C(CNC(=O)c2cccc(Cl)c2Cl)N2CCC(F)CC2)cn1` (single isomer, unassigned; (+)) [(+)2,3-dichloro-N-[2-(4-fluoro-1-piperidyl)-2-(2-methylpyrim] [(+2,3-dichloro-N-(2-(4-fluoropiperidin-1-yl)-2-(2-methylpyrimidin-5-yl)ethyl)benzamide] had a pIC50 of 8.19. The result for `O=C(NCC(c1cnc(C(F)(F)F)nc1)N1CCC(F)CC1)c1ccccc1Cl` (single isomer, unassigned; (-)) [(−)2-chloro-N-[2-(4-fluoro-1-piperidyl)-2-[2-(trifluoromethy] [(−)2-chloro-N-(2-(4-fluoropiperidin-1-yl)-2-(2-(trifluoromethyl)pyrimidin-5-yl)ethyl)benzamide] reads 7.89. `Cc1ncc(C(CNC(=O)c2cccc(Cl)c2Cl)N2CCC(C)C2)cn1` (centres unmarked) [2,3-dichloro-N-(2-(2-methylpyrimidin-5-yl)-2-(3-methylpyrrolidin-1-yl)ethyl)benzamide]: the pIC50 is 6.00. With `N#Cc1ccc(Cl)c(C(=O)NCC(c2ccc(Cl)cc2)N2CCOCC2)c1` (single isomer, unassigned; (-)) [(−)2-chloro-N-[2-(4-chlorophenyl)-2-morpholino-ethyl]-5-cyan] [(−)2-chloro-N-(2-(4-chlorophenyl)-2-morpholinoethyl)-5-cyanobenzamide], the pIC50 was 6.96. This pIC50 is 0.96 log units higher than that of the compound before. The value for `O=C(NCC(c1ccc(C(F)F)nc1)N1CCC(F)(F)CC1)c1cccc(Cl)c1Cl` (single isomer, unassigned; (+)) [(+)2,3-dichloro-N-[2-[6-(difluoromethyl)-3-pyridyl]-2-(4,4-d] [(+)2,3-dichloro-N-(2-(2-(difluoromethyl)pyridin-5-yl)-2-(4,4-difluoropiperidin-1-yl)ethyl)benzamide] was 8.62; that for `O=C(NCC(c1ccc(C(F)(F)F)nc1)N1CCC(F)(F)CC1)c1c(F)cccc1Cl` (single isomer, unassigned; (-)) [(−)2-chloro-N-[2-(4,4-difluoro-1-piperidyl)-2-[6-(trifluorom] [(−)2-chloro-6-fluoro-N-(2-(4,4-difluoropiperidin-1-yl)-2-(trifluoromethyl)pyridin-5-yl)ethyl)benzamide] was 8.52.

The compound `CCc1ncc(C(CNC(=O)c2c(F)cccc2Cl)N2CCC(F)(F)CC2)cn1` (single isomer, unassigned; (-)) [(−)2-chloro-N-[2-(4,4-difluoro-1-piperidyl)-2-(2-ethylpyrimi] [(−)2-chloro-6-fluoro-N-(2-(4,4-difluoropiperidin-1-yl)-2-(2-ethylpyrimidin-5-yl)ethyl)benzamide] showed a pIC50 of 7.44. In the case of `O=C(NC[C@H](c1ccc(Cl)cc1)N1CCOCC1)c1cccc(Cl)c1Cl` [2,3-Dichloro-N-[(S)-2-(4-chloro-phenyl)-2-morpholin-4-yl-ethyl]benzamide], the pIC50 was 9.21. Compared with the last compound, the pIC50 is 1.77 log units higher.

These data come from patent publication US9415055B2, “Cyclic amines” (H. Lundbeck A/S, priority 2012, dated 2016).
